Reference: article PMC10923054, “Antiplasmodial peptaibols act through membrane directed mechanisms” (Cell Chemical Biology, 2024)
Where two headings read alike, the source gives them in different places. Square brackets hold non-standard residues; d marks the D form. Peptide text beside a SMILES is read from it. Phe(ol) = N[C@H](CO)Cc1ccccc1; Leu(ol) = CC(C)C[C@H](N)CO; dIva = CC[C@@](C)(N)C(=O)O; Aib = CC(C)(N)C(=O)O

Columns and labels:
[1] = tested on: HZ NPDG-I-resistant Dd2 clones (pfmdr1 mutants); type: cell-based, P. falciparum; conditions: for Fold Change in IC50 vs the parental line, clone 1B2 / Fold Change in IC50 vs the parental line, clone 1E2 / Fold Change in IC50 vs the parental line, clone 2B3 / Fold Change in IC50 vs the parental line, clone 3A3: Figure S5, 72 h, SYTO 61 flow cytometry; for pfMDR1 Clone Sensitivity: Figure 7A summary; on pfMDR1 Clone Sensitivity: key: -: A '–' indicates a negative finding; a single '+' indicates a positive finding; a double '++' indicates a strong positive finding
Procedure: Screening of HZ NPDG-I resistant clones was performed at 1% parasitemia, 0.2% hematocrit with flow cytometry in V-shaped 96-well plates. Briefly, compounds were subjected to a 3-fold serial dilution with the highest concentration set at 4 μM or 8 μM. Eleven dilution points were included in addition to no-drug controls. Three technical replicates were set up for each compound at each dilution point. The Dd2-B2 parent line, or the clonal line 1B2, 2B3, 3A3, or 1E2 were added at 0.4% hematocrit and 1% parasitemia to the diluted compounds at a 1:1 ratio. The plate was incubated at 37°C for 72 h in a chamber filled with a hypoxic gas mixture (3% oxygen, 5% carbon dioxide, and 92% nitrogen). After incubation, a blood pellet was formed at the bottom of each well of the 96-well plate. Supernatant was removed without disturbing the pellet, and 20 μl of SYTO 61(1:10,000 dilution; Thermo Fisher Scientific, Cat No. S11343) in PBS was added to each well and incubated for 15 mins at room temperature. The cells in each well were then diluted with 180 μl of PBS and subjected to flow cytometry for parasitemia determination using the HTS (High-Throughput Sampler) of BD FACSCanto II (BD Biosciences, NJ). Flow cytometry data was analyzed using FlowJo Version 10.4.0. Dose response curves were generated and IC50 values obtained with GraphPad Prism Version 9.1.1.
A clone of the Dd2 strain (Dd2-B2) of P. falciparum was used for in vitro evolution of resistance against harzianin NPDG I. Three flasks of 1.2 x 10^8 parasites were continuously exposed to a stepwise-increasing concentration of the compound over ∼3 months starting from 20 nM up to a final concentration of 100 nM. Once a stable rightward shift in 72 h IC50 was observed, cultures were subjected to limiting dilution to obtained harzianin-resistant clones. Each clone was expanded, phenotyped to confirm resistance, and submitted for whole genome sequencing. An untreated flask of Dd2-B2 parasites was maintained in parallel throughout the course of in vitro selection as a control.

P. falciparum Dd2 = tested on: P. falciparum Dd2; design: method as in PMID: 33565879; conditions: asynchronous culture, 1% parasitemia, 1% hematocrit, 72 h, SYBR Green I; mean ± SEM, biological triplicate; ref PMID: 33565879; cited from earlier work
From the text: Arrow length represents correlation strength. Arrow direction indicates positive/negative correlation. Peptaibols color-coded based on type. See also Figure S1. […] Values represent mean ± SEM. Resistance index (RI) = Dd2 EC50/3D7 EC50, Selectivity index (SI) = HepG2 EC50/Dd2 EC50.

[2] = tested on: P. falciparum asexual blood stage parasites grown in 0.5% Albumax II; experiment: Antiplasmodial activity with Albumax II media; type: cell-based; conditions: RPMI with 0.5% Albumax II; mean ± SEM from 3 biological replicates
Procedure: Asexual blood stage parasites grown in the Chakrabarti laboratory were cultured based on a protocol by Trager and Jensen[57] with some modifications.[35] […] For comparison screening using serum vs Albumax II, culture media was changed from RPMI with 0.5% Albumax II to RPMI with 10% human serum and maintained for a minimum of 2 weeks prior to assay use.
Inhibitor EC50 determination in 3D7 and Dd2 was performed as discussed in,[35] based on established protocols.[60] Assays utilized asynchronous culture at 1% parasitemia, 1% hematocrit. Culture was incubated with compound dilutions for 72 h followed by freezing at −80°C to promote lysis, then thawing and incubation for 45 min–1 h with 1× SYBR Green I in a lysis buffer (20 mM Tris-HCL, 0.08% saponin, 5 mM EDTA, and 0.8% Triton X-100). Fluorescence was read 485 nm excitation, 530 nm emission on a Synergy Neo2 multimode reader (BioTek Winsooki, VT) and EC50 curves were generated using CDD Vault (https://www.collaborativedrug.com/).

[3] = tested on: P. berghei liver stage parasites in HepG2 cells; experiment: High content imaging P. berghei liver stage assay (luciferase 48 HPI, MSP1/AMA1 72 HPI, HepG2 area); type: cell-based; conditions: for Liver stage inhibition: Figure 7A summary
Procedure: HepG2 cells infected with luciferase-expressing P. berghei sporozoites were seeded onto compound-loaded 384-well plates 2 hours after sporozoite addition. A live luciferase readout at 48 HPI[62] quantifies compound activity against parasite biomass, while HCI of MSP1 and AMA1 expression at 72 HPI quantifies effects on liver stage maturation and hepatic merozoite formation. Compound effects on hepatocytes are assessed based on HepG2 area occupied in the 72 HPI HCI assay. All data are normalized to in-plate DMSO controls.

PfCARL_I1139K = experiment: Cross resistance screening (1536-well SYBR Green I); type: cell-based, P. falciparum; conditions: 72 h, mean ± SEM of 3 biological replicates
Procedure: (§1) Parasites grown in the Winzeler laboratory for screening and drug selections were maintained in RPMI 1640 medium supplemented with 0.25% Albumax I, 26 mM sodium bicarbonate, 0.1 mM hypoxanthine, and […] gentamicin. Human O+ whole blood obtained from the Blood Bank of The Scripps Research Institute was used for cultivation (human subjects IRB number: 125933). Blood-stage cultures were kept at 37°C with 5% CO2, 3% O2, and 92% N2. Monitoring of parasitemia and parasite morphology was performed using microscopic evaluation of thin blood smears that were first fixed with methanol, and then stained with Giemsa.
(§2) Cross resistance screening was performed with 0.3% parasitemia, 2.5% hematocrit, dispensed into 1536-well black, clear bottom plates with pre-spotted compound using a MultiFloTM Microplate dispenser (BioTek) at a volume of 8 μL/well. Plates where then incubated at 37°C for 72 h, after which 10× SYBR Green I (Invitrogen) in a lysis buffer (20 mM Tris/HCl, 5 mM EDTA, 0.16% (w/v) saponin, 1.6% (v/v) […]) was then added using a MultiFloTM Microplate dispenser (BioTek) at a volume of 2 μL/well. After 24 h incubation at room temperature, viability was measured via fluorescence using the EnVision® Multilabel Reader (PerkinElmer) (485 nm excitation, 530 nm emission). IC50 values were determined in CDD vault (https://www.collaborativedrug.com/).

PfACS_A597 = experiment: as above; type: cell-based, P. falciparum; conditions: 72 h, mean ± SEM of 3 biological replicates
Procedure: as §1, §2

PfPI4K_S1320L = experiment: as above; type: cell-based, P. falciparum; conditions: 72 h, mean ± SEM of 3 biological replicates
Procedure: as §1, §2

Dd2 = experiment: Cross resistance screening (1536-well SYBR Green I), parental line; type: cell-based, P. falciparum; conditions: Winzeler laboratory cross resistance screen, 0.3% parasitemia, 2.5% hematocrit, 72 h, mean ± SEM of 3 biological replicates
Procedure: as §1, §2

CC(=O)NC(C)(C)C(=O)N1CCC[C@H]1C(=O)NC(C)(C)C(=O)N[C@@H](C)C(=O)NC(C)(C)C(=O)N[C@@H](C)C(=O)N[C@@H](CCC(N)=O)C(=O)NC(C)(C)C(=O)N[C@H](C(=O)NC(C)(C)C(=O)NCC(=O)N[C@@H](CC(C)C)C(=O)NC(C)(C)C(=O)N1CCC[C@H]1C(=O)N[C@H](C(=O)NC(C)(C)C(=O)NC(C)(C)C(=O)N[C@@H](CCC(=O)O)C(=O)N[C@@H](CCC(N)=O)C(=O)N[C@H](CO)Cc1ccccc1)C(C)C)C(C)C [Alamethicin, reference compound] (Ac-[Aib]P[Aib]A[Aib]AQ[Aib]V[Aib]GL[Aib]PV[Aib][Aib]EQ[Phe(ol)]; N-terminus assumed)
Fold Change in IC50 vs the parental line, clone 1B2 [1]: 0.55
Fold Change in IC50 vs the parental line, clone 1E2 [1]: 0.45
Fold Change in IC50 vs the parental line, clone 2B3 [1]: 0.63
Fold Change in IC50 vs the parental line, clone 3A3 [1]: 0.54

CC[C@H](C)[C@H](NC(=O)[C@H](C)NC(=O)[C@@H]1CCCN1C(=O)C(C)(C)NC(=O)[C@H](CC(C)C)NC(=O)[C@H](CCC(N)=O)NC(=O)[C@@](C)(CC)NC(C)=O)C(=O)NC(C)(C)C(=O)N1CCC[C@H]1C(=O)N[C@](C)(CC)C(=O)N[C@@H](CC(C)C)C(=O)NC(C)(C)C(=O)N1CCC[C@H]1C(=O)N[C@H](CO)CC(C)C [HZ NPDG-H, harzianin NPDG H] (Ac-[dIva]QL[Aib]PAI[Aib]P[dIva]L[Aib]P[Leu(ol)])
EC50 (P. falciparum Dd2): 330 ± 90 nM
EC50 [2]: 330 ± 90 nM
Liver stage inhibition [3]: Maturation only
EC50 increase in HZ NPDG-I resistant clones vs parental line ([1]; 4 resistant clones screened): 1.4 fold
pfMDR1 Clone Sensitivity [1]: -
Fold Change in IC50 vs the parental line, clone 1B2 [1]: 0.62
Fold Change in IC50 vs the parental line, clone 1E2 [1]: 0.98
Fold Change in IC50 vs the parental line, clone 2B3 [1]: 1.14
Fold Change in IC50 vs the parental line, clone 3A3 [1]: 1.40

CC[C@@](C)(NC(=O)C(C)(C)NC(=O)[C@H](CC(C)C)NC(=O)[C@@H]1CCCN1C(=O)C(C)(C)NC(=O)[C@H](CC(C)C)NC(=O)CNC(=O)C(C)(C)NC(=O)[C@@H](NC(=O)C(C)(C)NC(=O)[C@H](CCC(N)=O)NC(=O)C(C)(C)NC(=O)C(C)(C)NC(=O)[C@H](C)NC(=O)CNC(=O)C(C)(C)NC(C)=O)C(C)C)C(=O)N[C@@H](CCC(N)=O)C(=O)N[C@H](CO)CC(C)C [TC HA-II, trichorzin HA II] (Ac-[Aib]GA[Aib][Aib]Q[Aib]V[Aib]GL[Aib]PL[Aib][dIva]Q[Leu(ol)])
Liver stage inhibition [3]: Maturation and replication
luciferase inhibition at 48 HPI (liver stage HCI) ([3]; tested at 5 and 0.5 μM): showed luciferase inhibition
pfMDR1 Clone Sensitivity [1]: -

CC[C@H](C)[C@H](NC(=O)[C@H](CC(C)C)NC(=O)[C@H](CCC(N)=O)NC(=O)[C@@](C)(CC)NC(C)=O)C(=O)NC(C)(C)C(=O)N1CCC[C@H]1C(=O)N[C@](C)(CC)C(=O)N[C@@H](CC(C)C)C(=O)NC(C)(C)C(=O)N1CCC[C@H]1C(=O)N[C@H](CO)CC(C)C [HZ NPDG-I, harzianin NPDG I] (Ac-[dIva]QLI[Aib]P[dIva]L[Aib]P[Leu(ol)])
EC50 (P. falciparum Dd2): 100 nM
EC50 [2]: 100 ± 10 nM
EC50 (PfCARL_I1139K): 8 ± 1 nM
EC50 (PfACS_A597): 23 ± 5 nM
EC50 (PfPI4K_S1320L): 13 ± 3 nM
Liver stage inhibition [3]: Maturation only
pfMDR1 Clone Sensitivity [1]: ++
Fold Change in IC50 vs the parental line, clone 1B2 [1]: 8.70
Fold Change in IC50 vs the parental line, clone 1E2 [1]: 5.70
Fold Change in IC50 vs the parental line, clone 2B3 [1]: 7.00
Fold Change in IC50 vs the parental line, clone 3A3 [1]: 4.50
fold change, clone 1D5 ([1]; flask 1, IC50 vs Dd2-B2): 4.65
fold change, clone 1H3 ([1]; flask 1, IC50 vs Dd2-B2): 7.57
fold change, clone Harzianin-Dd2-1B2 ([1]; flask 1, IC50 vs Dd2-B2): 8.64
fold change, clone Harzianin-Dd2-1C12 ([1]; flask 1, IC50 vs Dd2-B2): 9.71
fold change, clone Harzianin-Dd2-1E2 ([1]; flask 1, IC50 vs Dd2-B2): 5.63
IC50 ([1]; flask 1, read-out: IC50, clone 1D5): 0.249 nM
IC50 ([1]; flask 1, read-out: IC50, clone 1H3): 0.406 nM
IC50 ([1]; flask 1, read-out: IC50, clone Harzianin-Dd2-1B2): 0.463 nM
IC50 ([1]; flask 1, read-out: IC50, clone Harzianin-Dd2-1C12): 0.52 nM
IC50 ([1]; flask 1, read-out: IC50, clone Harzianin-Dd2-1E2): 0.302 nM
fold change, clone 2B7 ([1]; flask 2, IC50 vs Dd2-B2): 3.87
fold change, clone 2E9 ([1]; flask 2, IC50 vs Dd2-B2): 6.77
fold change, clone Harzianin-Dd2-2B3 ([1]; flask 2, IC50 vs Dd2-B2): 6.98
fold change, clone Harzianin-Dd2-2E8 ([1]; flask 2, IC50 vs Dd2-B2): 5.31
fold change, clone Harzianin-Dd2-2G7 ([1]; flask 2, IC50 vs Dd2-B2): 4.60
IC50 ([1]; flask 2, read-out: IC50, clone 2B7): 0.0859 nM
IC50 ([1]; flask 2, read-out: IC50, clone 2E9): 0.15 nM
IC50 ([1]; flask 2, read-out: IC50, clone Harzianin-Dd2-2B3): 0.155 nM
IC50 ([1]; flask 2, read-out: IC50, clone Harzianin-Dd2-2E8): 0.118 nM
IC50 ([1]; flask 2, read-out: IC50, clone Harzianin-Dd2-2G7): 0.102 nM
fold change, clone 3A5 ([1]; flask 3, IC50 vs DD2-B2): 4.30
fold change, clone 3B7 ([1]; flask 3, IC50 vs DD2-B2): 4.05
fold change, clone 3G7 ([1]; flask 3, IC50 vs DD2-B2): 3.98
fold change, clone Harzianin-Dd2-3A3 ([1]; flask 3, IC50 vs DD2-B2): 4.51
fold change, clone Harzianin-Dd2-3C6 ([1]; flask 3, IC50 vs DD2-B2): 4.68
fold change, clone Harzianin-Dd2-3G11 ([1]; flask 3, IC50 vs DD2-B2): 3.93
IC50 ([1]; flask 3, read-out: IC50, clone 3A5): 0.188 nM
IC50 ([1]; flask 3, read-out: IC50, clone 3B7): 0.177 nM
IC50 ([1]; flask 3, read-out: IC50, clone 3G7): 0.174 nM
IC50 ([1]; flask 3, read-out: IC50, clone Harzianin-Dd2-3A3): 0.197 nM
IC50 ([1]; flask 3, read-out: IC50, clone Harzianin-Dd2-3C6): 0.204 nM
IC50 ([1]; flask 3, read-out: IC50, clone Harzianin-Dd2-3G11): 0.172 nM
EC50 (Dd2): 13 ± 6 nM
